Reference: the supplement of paper PMC10307832

Legend:
Assay in all cases: relative viability (nuclei count vs DMSO), 5 days (fraction); higher = more cells survive
H3255 = test system: H3255
How it was run: (§1)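 Nuclei were stained with Hoechst during a one-step fixation (final 0.05% Triton X-100, 1% formaldehyde, 1 ug/ml Hoechst) carried out 5 days after dosing, then counted on 4× images. The cells, lung cancer lines in 1536-well plates, had been dosed by pin tool the day after seeding with one drug alone or a fixed anchor-drug dose plus five library-drug doses (not always all listed) in √10 steps. Relative viability is the nuclei count in treated wells divided by that in vehicle wells, and each value is the median of duplicate plates.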

NCI-H1975 = test system: NCI-H1975
How it was run: as §1

NCI-H2228 = test system: NCI-H2228
How it was run: as §1

HCC-366 = test system: HCC-366
How it was run: as §1

LCLC-103H = test system: LCLC-103H
How it was run: as §1

NCI-H661 = test system: NCI-H661
How it was run: as §1

PC-14 = test system: PC-14
How it was run: as §1

LC-2-ad = test system: LC-2-ad
How it was run: as §1

NCI-H23 = test system: NCI-H23
How it was run: as §1

UMC-11 = test system: UMC-11
How it was run: as §1

NCI-H2087 = test system: NCI-H2087
How it was run: as §1

COR-L23 = test system: COR-L23
How it was run: as §1

HCC-15 = test system: HCC-15
How it was run: as §1

NCI-H2085 = test system: NCI-H2085
How it was run: as §1

NCI-H1666 = test system: NCI-H1666
How it was run: as §1

NCI-H1437 = test system: NCI-H1437
How it was run: as §1

HCC-827 = test system: HCC-827
How it was run: as §1

ABC-1 = test system: ABC-1
How it was run: as §1

NCI-H2009 = test system: NCI-H2009
How it was run: as §1

LXF-289 = test system: LXF-289
How it was run: as §1

PC-3 [JPC-3] = test system: PC-3 [JPC-3]
How it was run: as §1

SK-MES-1 = test system: SK-MES-1
How it was run: as §1

Cc1cn(-c2cc(NC(=O)c3ccc(C)c(Nc4nccc(-c5cccnc5)n4)c3)cc(C(F)(F)F)c2)cn1 [Nilotinib] + C[C@]1(O)C[C@@H](c2nc(-c3ccc4ccc(-c5ccccc5)nc4c3)c3c(N)nccn32)C1 [Linsitinib] (partner 1 µM)
relative viability (H3255; first compound 0.001 µM): 0.817
relative viability (H3255; first compound 0.003162 µM): 1.06
relative viability (H3255; first compound 0.01 µM): 1.2
relative viability (H3255; first compound 0.03162 µM): 0.875
relative viability (H3255; first compound 0.1 µM): 0.952
relative viability (NCI-H1975; first compound 0.001 µM): 0.913
relative viability (NCI-H1975; first compound 0.003162 µM): 1.23
relative viability (NCI-H1975; first compound 0.01 µM): 1.03
relative viability (NCI-H1975; first compound 0.03162 µM): 0.688
relative viability (NCI-H1975; first compound 0.1 µM): 0.822
relative viability (NCI-H2228; first compound 0.001 µM): 0.578
relative viability (NCI-H2228; first compound 0.003162 µM): 0.862
relative viability (NCI-H2228; first compound 0.01 µM): 0.603
relative viability (NCI-H2228; first compound 0.03162 µM): 0.657
relative viability (NCI-H2228; first compound 0.1 µM): 0.623
relative viability (HCC-366; first compound 0.001 µM): 0.577
relative viability (HCC-366; first compound 0.003162 µM): 1.33
relative viability (HCC-366; first compound 0.01 µM): 0.857
relative viability (HCC-366; first compound 0.03162 µM): 0.64
relative viability (HCC-366; first compound 0.1 µM): 0.472
relative viability (LCLC-103H; first compound 0.001 µM): 1.19
relative viability (LCLC-103H; first compound 0.003162 µM): 1.17
relative viability (LCLC-103H; first compound 0.03162 µM): 0.783
relative viability (LCLC-103H; first compound 0.1 µM): 1.17
relative viability (NCI-H661; first compound 0.001 µM): 0.508
relative viability (NCI-H661; first compound 0.003162 µM): 0.472
relative viability (NCI-H661; first compound 0.01 µM): 0.612
relative viability (NCI-H661; first compound 0.03162 µM): 0.501
relative viability (NCI-H661; first compound 0.1 µM): 0.586
relative viability (PC-14; first compound 0.001 µM): 0.883
relative viability (PC-14; first compound 0.003162 µM): 1.05
relative viability (PC-14; first compound 0.01 µM): 1.07
relative viability (PC-14; first compound 0.03162 µM): 0.898
relative viability (PC-14; first compound 0.1 µM): 1.01
relative viability (LC-2-ad; first compound 0.001 µM): 0.862
relative viability (LC-2-ad; first compound 0.003162 µM): 0.985
relative viability (LC-2-ad; first compound 0.01 µM): 1.02
relative viability (LC-2-ad; first compound 0.03162 µM): 0.897
relative viability (LC-2-ad; first compound 0.1 µM): 0.735
relative viability (NCI-H23; first compound 0.001 µM): 0.556
relative viability (NCI-H23; first compound 0.003162 µM): 0.686
relative viability (NCI-H23; first compound 0.01 µM): 0.713
relative viability (NCI-H23; first compound 0.03162 µM): 0.49
relative viability (NCI-H23; first compound 0.1 µM): 0.579
relative viability (UMC-11; first compound 0.001 µM): 1
relative viability (UMC-11; first compound 0.003162 µM): 1.26
relative viability (UMC-11; first compound 0.01 µM): 1.27
relative viability (UMC-11; first compound 0.1 µM): 1.13
relative viability (NCI-H2087; first compound 0.001 µM): 0.855
relative viability (NCI-H2087; first compound 0.003162 µM): 0.949
relative viability (NCI-H2087; first compound 0.01 µM): 1.08
relative viability (NCI-H2087; first compound 0.03162 µM): 0.852
relative viability (NCI-H2087; first compound 0.1 µM): 0.66
relative viability (COR-L23; first compound 0.001 µM): 0.777
relative viability (COR-L23; first compound 0.003162 µM): 1.18
relative viability (COR-L23; first compound 0.01 µM): 1.24
relative viability (COR-L23; first compound 0.03162 µM): 0.781
relative viability (COR-L23; first compound 0.1 µM): 0.903
relative viability (HCC-15; first compound 0.001 µM): 0.874
relative viability (HCC-15; first compound 0.003162 µM): 1.01
relative viability (HCC-15; first compound 0.01 µM): 0.987
relative viability (HCC-15; first compound 0.03162 µM): 0.743
relative viability (HCC-15; first compound 0.1 µM): 0.744
relative viability (NCI-H2085; first compound 0.001 µM): 0.864
relative viability (NCI-H2085; first compound 0.003162 µM): 1.08
relative viability (NCI-H2085; first compound 0.01 µM): 1.15
relative viability (NCI-H2085; first compound 0.03162 µM): 0.888
relative viability (NCI-H2085; first compound 0.1 µM): 0.884
relative viability (NCI-H1666; first compound 0.001 µM): 0.854
relative viability (NCI-H1666; first compound 0.003162 µM): 0.954
relative viability (NCI-H1666; first compound 0.01 µM): 0.74
relative viability (NCI-H1666; first compound 0.03162 µM): 0.911
relative viability (NCI-H1666; first compound 0.1 µM): 0.945
relative viability (NCI-H1437; first compound 0.001 µM): 0.879
relative viability (NCI-H1437; first compound 0.003162 µM): 1.19
relative viability (NCI-H1437; first compound 0.01 µM): 1.24
relative viability (NCI-H1437; first compound 0.03162 µM): 0.747
relative viability (NCI-H1437; first compound 0.1 µM): 0.755
relative viability (HCC-827; first compound 0.001 µM): 0.944
relative viability (HCC-827; first compound 0.003162 µM): 1.08
relative viability (HCC-827; first compound 0.01 µM): 1.08
relative viability (HCC-827; first compound 0.1 µM): 0.941
relative viability (ABC-1; first compound 0.001 µM): 0.985
relative viability (ABC-1; first compound 0.003162 µM): 0.862
relative viability (ABC-1; first compound 0.01 µM): 0.724
relative viability (ABC-1; first compound 0.03162 µM): 0.683
relative viability (ABC-1; first compound 0.1 µM): 0.554
relative viability (NCI-H2009; first compound 0.001 µM): 1.07
relative viability (NCI-H2009; first compound 0.003162 µM): 1.28
relative viability (NCI-H2009; first compound 0.01 µM): 1.22
relative viability (NCI-H2009; first compound 0.03162 µM): 1.18
relative viability (NCI-H2009; first compound 0.1 µM): 1.15
relative viability (LXF-289; first compound 0.001 µM): 0.979
relative viability (LXF-289; first compound 0.003162 µM): 1.15
relative viability (LXF-289; first compound 0.01 µM): 1.09
relative viability (LXF-289; first compound 0.03162 µM): 0.949
relative viability (LXF-289; first compound 0.1 µM): 0.92
relative viability (PC-3 [JPC-3]; first compound 0.001 µM): 0.997
relative viability (PC-3 [JPC-3]; first compound 0.003162 µM): 1.1
relative viability (PC-3 [JPC-3]; first compound 0.01 µM): 1.09
relative viability (PC-3 [JPC-3]; first compound 0.03162 µM): 1.01
relative viability (PC-3 [JPC-3]; first compound 0.1 µM): 0.927
relative viability (SK-MES-1; first compound 0.003162 µM): 1.29
relative viability (SK-MES-1; first compound 0.01 µM): 1.16
relative viability (SK-MES-1; first compound 0.03162 µM): 1.12
